Holding throughout (type): in vivo, rat (Wistar-Han)
The test system of assay [1] is lipid peroxidation. Description: Plasma TBARS in rats after 4 weeks of diet. As to the method: (§1) 40 weaned male rats of the Wistar-Han type (IFFA-CREDO; L'Arbresle, France) 6 week old and weighing approximately 150 g were used. The rats were placed in cages with a wire mesh back in a temperature-controlled room (22° C.) with day/night cycles of 12 hours. The animals were treated according to the recommendations of the INRA Ethics Committee, decree No. 87-848.
(§2) First of all the rats were fed following a semi-purified starch-based diet for 7 days: They were then randomly divided into 4 groups of 10 rats: one starch group (A), one fructose group (F), one starch+FOS group (A/FOS) and one fructose+FOS group (F/FOS). They then followed their appropriate diet for 4 weeks. […]
(§3) The FOS (Raftilose® P95) were obtained from ORAFTI, Thienen, Belgium. They were introduced into the food gradually in order to avoid diarrhoea which could occur in response to too rapid an administration of large quantities of this compound. […]
(§4) 4 days before sacrifice, the animals were housed individually in stainless steel cages with ad libitum access to the water and food. Urine-samples were recovered 24 hours before sacrifice in 50 ml graduated tubes, the volumes were precisely measured, the samples were then centrifuged and kept at −80° C. until analysis. […]
(§5) The levels of plasma TBARS were determined by spectrofluorometry on an LS 5 device (Perkin Elmer, Norwalk, Conn., USA). […]

Another assay deals with heart lipids. In words: Heart TBARS: susceptibility of heart lipids to FeSO4-ascorbate induced peroxidation. The following applies: rats, diet for 4 weeks. As to the method: as §1, §2, §3, §4, §5
The test system of assay [2] is lipid peroxidation. Description: Urinary TBARS in rats after 4 weeks of diet. Particulars: diet for 4 weeks. As to the method: as §1, §2, §3, §4, §5
The nature of assay [3]: Plasma vitamin E concentration and vitamin E/triglycerides ratio in rats after 4 weeks of diet. The following applies: diet for 4 weeks. As to the method: as §1
(§6) First of all the rats were fed following a semi-purified starch-based diet for 7 days: They were then randomly divided into 4 groups of 10 rats: one starch group (A), one fructose group (F), one starch+FOS group (A/FOS) and one fructose+FOS group (F/FOS). They then followed their appropriate diet for 4 weeks.
(§7) The food and distilled water were provided ad libitum. The composition of the food rations was as follows (in g/kg):
The FOS (Raftilose® P95) were obtained from ORAFTI, Thienen, Belgium. They were introduced into the food gradually in order to avoid diarrhoea which could occur in response to too rapid an administration of large quantities of this compound. Raftilose® P95 is a mixture of Glucosyl-(Fructosyl)n-Fructose (64%) and of (Fructosyl)m-Fructose (36%) with average degrees of polymerization of 4.8.
4 days before sacrifice, the animals were housed individually in stainless steel cages with ad libitum access to the water and food. Urine-samples were recovered 24 hours before sacrifice in 50 ml graduated tubes, the volumes were precisely measured, the samples were then centrifuged and kept at −80° C. until analysis. At the time of sacrifice the rats were weighed, then anesthetized using sodium pentobarbital (intra-peritoneal injection at 40 mg/kg) and killed. […]
The plasma concentrations of vitamin E were determined by reversed-phase high performance liquid chromatography on a Kontron series 400 device (Kontron St Quentin en Yvelines, France) using a hexane extract. α-tocopherol acetate (Sigma) was added to the samples as internal control. […] The compounds were detected by UV (292 nm) then quantified with internal and external calibrations using control solutions.

The nature of assay [4]: Plasma triglyceride concentration in rats after 4 weeks of diet. Particulars: diet for 4 weeks, average of 10 animals ± standard deviation. As for the experimental part:
as §1, §6, §7, §3, §4

The mark [5] stands for this setting: Fructose vs Starch group, Fructose+FOS vs Fructose group.

As to `O=C(CO)[C@@H](O)[C@H](O)[C@H](O)CO` [Fructose], the “Plasma TBARS” value in the assay with lipid peroxidation [1] (diet ad libitum for 4 weeks, FOS 100 g/kg diet, sugar 650 or 550 g/kg, average of 10 animals ± standard deviation) came to 2.14 ± 0.07 nmol/mL. The “Plasma TBARS, comparison between diet groups” value in the assay with lipid peroxidation [1] (diet for 4 weeks, Fructose vs Starch group, Fructose+FOS vs Fructose group) is reported as “significantly higher”. Further, the “Heart TBARS, comparison between diet groups” value in the assay with heart lipids (setting [5]) is “significantly higher”. In addition, the “Heart TBARS” value in the assay on heart lipids (heart homogenate, FeSO4 (2 μmol/l)-ascorbate (50 μmol/l), 30 minutes at 37° C., average of 10 animals ± standard deviation) is given as 98.8 ± 6.5 nmol/g of fresh weight. The “Urinary TBARS, comparison between diet groups” value in the assay with lipid peroxidation [2] (setting [5]) was “significantly higher”. Also, the “Urinary TBARS” value in the assay on lipid peroxidation [2] (urine of 24 hours, average of 10 animals ± standard deviation) is 21.97 ± 1.58 nmol/24 h. The “Ratio Vitamin E/TG, effect of the diet” value in assay [3] (diet rich in fructose vs starch diet, supplementation with FOS) is given as “lowers the ratio Vitamin E/TG”. Besides, the Vitamin E/TG in assay [3] (plasma ratio, average of 10 animals ± standard deviation) was 2.68 ± 0.12 µg/µmol. Further, the “Vitamin E” value in assay [3] (plasma, average of 10 animals ± standard deviation) was determined as 9.74 ± 0.92 µg/mL. The Triglycerides (TG) in assay [4] was determined as 3.73 ± 0.45 mM.
